Laboratory results taken from US20050069877A1, “Protein modification and maintenance molecules” (priority 2001, published 2005).

Experiments:
[1] = intranasal; greater than those produced by hydrocortisone; cited from earlier work
[2] = system: expression of SEQ ID NO:33 in human C3A liver cell line; test: Microarray expression of SEQ ID NO:33 in compound-treated C3A liver cells; type: cell-based; conditions: human C3A liver cell line incubated for varying lengths of time with compound
Source text: The array elements are hybridized with polynucleotides in a biological sample. The polynucleotides in the biological sample are conjugated to a fluorescent label or other molecular tag for ease of detection. After hybridization, nonhybridized nucleotides from the biological sample are removed, and a fluorescence scanner is used to detect hybridization at each array element. […] The degree of complementarity and the relative abundance of each polynucleotide which hybridizes to an element on the microarray may be assessed.
Total RNA is isolated from tissue samples using the guanidinium thiocyanate method and poly(A)^+ RNA is purified using the oligo-(dT) cellulose method. Each poly(A)^+ RNA sample is reverse transcribed using MMLV reverse-transcriptase, 0.05 pg/μl oligo-(dT) primer (21 mer), 1× first strand buffer, 0.03 units/μl RNase inhibitor, 500 μM dATP, 500 μM dGTP, 500 μM dTTP, 40 μM dCTP, 40 μM dCTP-Cy3 (BDS) or dCTP-Cy5 (Amersham Biosciences). The reverse transcription reaction is performed in a 25 ml volume containing 200 ng poly(A)^+ RNA with GEMBRIGHT kits (Incyte). Specific control poly(A)^+ RNAs are synthesized by in vitro transcription from non-coding yeast genomic DNA. […]

[3] = system: expression of SEQ ID NO:35 in human peripheral blood mononuclear cells (PBMCs); test: Microarray expression of SEQ ID NO:35 in prednisone-treated PBMCs; type: cell-based; conditions: PBMCs pooled from 6 healthy donors, 5 and 25 μM, 24 hours, compared to untreated controls
Source text: (§1) Full length cDNAs, Expressed Sequence Tags (ESTs), or fragments or oligomers thereof may comprise the elements of the microarray. Fragments or oligomers suitable for hybridization can be selected using software well known in the art such as LASERGENE software (DNASTAR). The array elements are hybridized with polynucleotides in a biological sample. The polynucleotides in the biological sample are conjugated to a fluorescent label or other molecular tag for ease of detection. After hybridization, nonhybridized nucleotides from the biological sample are removed, and a fluorescence scanner is used to detect hybridization at each array element. Alternatively, laser desorbtion and mass spectrometry may be used for detection of hybridization. The degree of complementarity and the relative abundance of each polynucleotide which hybridizes to an element on the microarray may be assessed. In one embodiment, microarray preparation and usage is described in detail below.
(§2) Total RNA is isolated from tissue samples using the guanidinium thiocyanate method and poly(A)^+ RNA is purified using the oligo-(dT) cellulose method. […]
(§3) Sequences of the present invention are used to generate array elements. […] Array elements are amplified in thirty cycles of PCR from an initial quantity of 1-2 ng to a final quantity greater than 5 μg. […]

[4] = greater than progesterone; cited from earlier work
[5] = system: expression of SEQ ID NO:44 in peripheral blood mononuclear cells; test: Microarray expression of SEQ ID NO:44 in IL12-treated PBMCs; type: cell-based, human; conditions: PBMCs from a pool of healthy donors, 1 ng/ml, 24 hours
Source text: as §1, §2, §3

## C[C@H]1C[C@H]2[C@@H]3CCC4=CC(=O)C=C[C@]4(C)[C@@]3(Cl)[C@@H](O)C[C@]2(C)[C@@]1(O)C(=O)CO [beclomethasone]
[1]
  anti-inflammatory and vasoconstrictive effects relative to hydrocortisone: 5000 times
[2]
  expression of SEQ ID NO:33: reduced by at least two fold

## C[C@]12C=CC(=O)C=C1CC[C@@H]1[C@@H]2C(=O)C[C@@]2(C)[C@H]1CC[C@]2(O)C(=O)CO [prednisone]
[3]
  expression of SEQ ID NO:35: decreased by at least two-fold

## 6α-methyl-17-hydroxyprogesterone [medroxyprogesterone]
[4]
  pharmacological activity relative to progesterone: about 15 times
[2]
  expression of SEQ ID NO:33: reduced by at least two fold

B1: IL12: pleiotropic cytokine produced by macrophages and B lymphocytes (protein, UniProt P29459 23-219; P29460 23-328, looked up)
Interleukin-12 subunit alpha: RNLPVATPDPGMFPCLHHSQNLLRAVSNMLQKARQTLEFYPCTSEEIDHEDITKDKTSTVEACLPLELTKNESCLNSRETSFITNGSCLASRKTSFMMALCLSSIYEDLKMYQVEFKTMNAKLLMDPKRQIFLDQNMLAVIDELMQALNFNSETVPQKSSLEEPDFYKTKIKLCILLHAFRIRAVTIDRVMSYLNAS
Interleukin-12 subunit beta: IWELKKDVYVVELDWYPDAPGEMVVLTCDTPEEDGITWTLDQSSEVLGSGKTLTIQVKEFGDAGQYTCHKGGEVLSHSLLLLHKKEDGIWSTDILKDQKEPKNKTFLRCEAKNYSGRFTCWWLTTISTDLTFSVKSSRGSSDPQGVTCGAATLSAERVRGDNKEYEYSVECQEDSACPAAEESLPIEVMVDAVHKLKYENYTSSFFIRDIIKPDPPKNLQLKPLKNSRQVEVSWEYPDTWSTPHSYFSLTFCVQVQGKSKREKKDRVFTDKTSATVICRKNASISVRAQDRYYSSSWSEWASVPCS
[5]
  expression of SEQ ID NO:44: decreased by at least two-fold
